Our source for the TNF-α production values is patent US20160166654A1, “COLLAGEN-TARGETED NANOPARTICLES” (PURDUE RESEARCH FOUNDATION, priority 2011, published 2016).

This data set has as its system TNF-α production by human monocytes (THP-1). Kind of data set: TNF-α production by THP-1 cells (ELISA). The settings on record: 24 hours, FIG. 8. The data set is classed as cell-based. On the procedure:
The biocompatibility of the nanoparticles was assessed by measuring toxicity and inflammation in THP-1 cells. Cells were seeded at a density of 250,000 cells/ml in 96-well plates (Corning) and treated with 10 ng/ml phorbol 12-myristate 13-acetate (PMA, Sigma-Aldrich) for 48 hours to induce differentiation, which was confirmed by the monocytes becoming adherent. Following a change of media, cells were treated with various concentrations of core+shell nanoparticles. Control samples received PBS (negative control) or 50 ng/ml lipopolysaccharide (LPS, Sigma-Aldrich) (positive control). After 24 hours, the media was collected for cytokine analysis and an MTT-based assay was performed to determine cell toxicity using the Aqueous One Proliferation Kit (Promega) according to manufacturer's instructions. […] After two hours of incubation in the cell culture incubator, the absorbance was read at 490 nm with a correction at 650 nm.
The ability of the particles to cause an inflammatory response was determined by running conditioned cell media on a TNF-α ELISA (PeproTech) according to manufacturer instructions. […] Following incubation with a detection antibody and an avidin-horse radish peroxidase conjugate, the samples were developed with the addition of 2,2′-azino-bis(3-ethylbenzthiazoline-6-sulphonic acid) (ABTS) liquid substrate (Sigma-Aldrich) and monitored at 405 nm with a correction at 650 nm.

Regarding lipopolysaccharide, the TNF-α production entry is on record as “did induce TNF-α production”.
